Where “and” joins values, the source holds several entries; their conditions need not be identical. Equal values may be shown once. Results filed as inconclusive are left out.
System: mice, P1798 lymphosarcoma sc, survival or tumor weight T/C
Test: NCI In Vivo Anticancer Drug Screen. Data for tumor model P1798 Lymphosarcoma (subcutaneous) in unknown mice
Method: The antitumor activity of compounds was measured in mice bearing transplantable tumors. Survival or tumor size were measured and the results are expressed as the measurement made in the treated group (T) divided by the measurement made in the vehicle treated control group (C). The tumor model used in this assay is P1798 Lymphosarcoma (subcutaneous) in unknown mice

With `O=C(O)C(=O)c1ccc(-c2ccccc2)cc1` the T/C (endpoint: mean tumor weight, dose: 31.0 mg/kg/injection, schedule: Q01DX010 (ip), vehicle: methylcellulose (MC), higher = larger tumour) was 82 % of control, the T/C (endpoint: mean tumor weight, dose: 62.5 mg/kg/injection, schedule: Q01DX010 (ip), vehicle: methylcellulose (MC), higher = larger tumour) was 87 % of control and the T/C (endpoint: mean tumor weight, dose: 125.0 mg/kg/injection, schedule: Q01DX010 (ip), vehicle: methylcellulose (MC), higher = larger tumour) was 106 % of control.
In the case of `Nc1nc(SCc2ccccc2)c2[nH]cnc2n1`, the T/C (endpoint: mean tumor weight, dose: 4.7 mg/kg/injection, schedule: Q01DX010 (ip), vehicle: carboxymethylcellulose (CMC), higher = larger tumour) is reported as 42 % of control and the T/C (endpoint: mean tumor weight, dose: 9.4 mg/kg/injection, schedule: Q01DX010 (ip), vehicle: carboxymethylcellulose (CMC), higher = larger tumour) is reported as 51 % of control.
In the case of `CC(=O)[C@H]1CC[C@H]2[C@@H]3C[C@H](C)C4=CC(=O)CC[C@]4(C)[C@H]3C(=O)C[C@]12C`, the T/C (endpoint: mean tumor weight, dose: 12.5 mg/kg/injection, schedule: Q01DX010 (sc), vehicle: carboxymethylcellulose (CMC), higher = larger tumour) is reported as 101 % of control, the T/C (endpoint: mean tumor weight, dose: 25.0 mg/kg/injection, schedule: Q01DX010 (sc), vehicle: carboxymethylcellulose (CMC), higher = larger tumour) is reported as 100 % of control and the T/C (endpoint: mean tumor weight, dose: 50.0 mg/kg/injection, schedule: Q01DX010 (sc), vehicle: carboxymethylcellulose (CMC), higher = larger tumour) is reported as 115 % of control. For the same molecule, the T/C (endpoint: mean tumor weight, dose: 100.0 mg/kg/injection, schedule: Q01DX010 (sc), vehicle: carboxymethylcellulose (CMC), higher = larger tumour) was 112 % of control, the T/C (endpoint: mean tumor weight, dose: 200.0 mg/kg/injection, schedule: Q01DX010 (sc), vehicle: carboxymethylcellulose (CMC), higher = larger tumour) was 117 % of control and the T/C (endpoint: mean tumor weight, dose: 400.0 mg/kg/injection, schedule: Q01DX010 (sc), vehicle: carboxymethylcellulose (CMC), higher = larger tumour) was 108 % of control.
With `C=CC(CN1CC1)OC(C)=O` (stereo not given) the T/C (endpoint: mean tumor weight, dose: 4.0 mg/kg/injection, schedule: Q01DX010 (ip), vehicle: saline, higher = larger tumour) was 71 % of control, the T/C (endpoint: mean tumor weight, dose: 6.0 mg/kg/injection, schedule: Q01DX010 (ip), vehicle: saline, higher = larger tumour) was 64 % of control and the T/C (endpoint: mean tumor weight, dose: 8.0 mg/kg/injection, schedule: Q01DX010 (ip), vehicle: saline, higher = larger tumour) was 42 % of control.
For `Cn1c(O)c(N=NC(N)=S)c2ccccc21`, the T/C (endpoint: mean tumor weight, dose: 25.0 mg/kg/injection, schedule: Q01DX011 (ip), vehicle: carboxymethylcellulose (CMC), higher = larger tumour) was 206 % of control, the T/C (endpoint: mean tumor weight, dose: 50.0 mg/kg/injection, schedule: Q01DX011 (ip), vehicle: carboxymethylcellulose (CMC), higher = larger tumour) was 117 % of control and the T/C (endpoint: mean tumor weight, dose: 100.0 mg/kg/injection, schedule: Q01DX011 (ip), vehicle: carboxymethylcellulose (CMC), higher = larger tumour) was 87 % of control.
With `O=c1[nH]cc(F)c(=O)[nH]1` the T/C (endpoint: mean tumor weight, dose: 2.0 mg/kg/injection, schedule: Q01DX010 (ip), vehicle: saline, higher = larger tumour) was 119 % of control, the T/C (endpoint: mean tumor weight, dose: 2.5 mg/kg/injection, schedule: Q01DX015 (ip), vehicle: carboxymethylcellulose (CMC), higher = larger tumour) was 108 % of control and the T/C (endpoint: mean tumor weight, dose: 5.0 mg/kg/injection, schedule: Q01DX010 (ip), vehicle: saline, higher = larger tumour) was 36 % of control. The T/C (endpoint: mean tumor weight, dose: 6.3 mg/kg/injection, schedule: Q01DX010 (ip), vehicle: saline, higher = larger tumour) was 44 % of control, the T/C (endpoint: mean tumor weight, dose: 10.0 mg/kg/injection, schedule: Q01DX015 (ip), vehicle: carboxymethylcellulose (CMC), higher = larger tumour) was 119 % of control and the T/C (endpoint: mean tumor weight, dose: 12.5 mg/kg/injection, schedule: Q01DX010 (ip), vehicle: saline, higher = larger tumour) was 27 % of control. For the same molecule, the T/C (endpoint: mean tumor weight, dose: 40.0 mg/kg/injection, schedule: Q01DX001 (ip), vehicle: carboxymethylcellulose (CMC), higher = larger tumour) was 71 % of control, the T/C (endpoint: mean tumor weight, dose: 80.0 mg/kg/injection, schedule: Q01DX001 (ip), vehicle: carboxymethylcellulose (CMC), higher = larger tumour) was 69 % of control and the T/C (endpoint: median survival time, dose: 5.0 mg/kg/injection, schedule: Q01DX010 (ip), vehicle: saline, higher = longer survival) was 97 % of control and 103 % of control (2×). The T/C (endpoint: median survival time, dose: 10.0 mg/kg/injection, schedule: Q01DX010 (ip), vehicle: saline, higher = longer survival) was 117 % of control (2×) and 103 % of control, the T/C (endpoint: median survival time, dose: 20.0 mg/kg/injection, schedule: Q01DX010 (ip), vehicle: saline, higher = longer survival) was 116 % of control and 39 % of control and the T/C (endpoint: median survival time, dose: 40.0 mg/kg/injection, schedule: Q01DX010 (ip), vehicle: saline, higher = longer survival) was 24 % of control and 28 % of control. For the same molecule, the T/C (endpoint: median survival time, dose: 80.0 mg/kg/injection, schedule: Q01DX010 (ip), vehicle: saline, higher = longer survival) was 26 % of control.
With `CC(=O)O[C@]1(C(C)=O)CC[C@H]2[C@@H]3C[C@H](C)C4=CC(=O)C=C[C@]4(C)[C@@]3(F)[C@@H](O)C[C@@]21C` the T/C (endpoint: mean tumor weight, dose: 5.0 mg/kg/injection, schedule: Q01DX010 (sc), vehicle: steriod suspending solution, higher = larger tumour) was 87 % of control, the T/C (endpoint: mean tumor weight, dose: 10.0 mg/kg/injection, schedule: Q01DX010 (sc), vehicle: steriod suspending solution, higher = larger tumour) was 106 % of control and the T/C (endpoint: mean tumor weight, dose: 20.0 mg/kg/injection, schedule: Q01DX010 (sc), vehicle: steriod suspending solution, higher = larger tumour) was 74 % of control. The T/C (endpoint: mean tumor weight, dose: 40.0 mg/kg/injection, schedule: Q01DX010 (sc), vehicle: steriod suspending solution, higher = larger tumour) was 47 % of control.
With `S=C(N=Nc1ccccc1)NNc1ccccc1` the T/C (endpoint: mean tumor weight, dose: 37.5 mg/kg/injection, schedule: Q01DX010 (ip), vehicle: carboxymethylcellulose (CMC), higher = larger tumour) was 64 % of control.
